Data as given in US20120329826A1, “SUBSTITUTED-5-AMINOPYRROLO/PYRAZOLOPYRIDINES” (OSI Pharmaceuticals,. LLC, priority 2010, published 2012).
Where a name gives a salt, the structure may show the parent alone.

Experiments:
RON (human) = RON (human) (Homo sapiens, UniProt Q04912); experiment: RON (human)-Km of ATP AlphaScreen kinase assay; details: biochemical, ATP at Km
Description: RON (human)-Km of ATP: RON assay is performed in a 384 well assay containing 200 ng/μL biotinylated poly(Glu, Tyr), 0.334 mM vanadate, desired concentration of ATP optimized for the enzyme in assay buffer (50 mM HEPES (pH=7.4), 12.5 mM MgCl2 and 1% glycerol). Desired compound is added in a final concentration of 1% DMSO with control being vehicle of DMSO alone. RON is diluted to the optimized (on a lot-by-lot basis) concentration in an enzyme diluent buffer (50 mM HEPES pH=7.4, 12.5 mM MgCl2 and 1% glycerol, 0.03% Brij35, 0.3 mM EGTA, 1 mM DTT, and 0.003% BSA). Enzyme is added to initiate the reaction and incubated for 30 min at RT. In subdued light, appropriate amount of PT66 donor and acceptor beads (diluted 1:260 from manufacturer's provision in a 25 mM Tris HCl (pH=7.5), 200 mM NaCl, 100 mM EDTA, 0.3% BSA buffer) are added to the wells. The plates, incubated for 1 h, are read on an AlphaQuest plate reader.

MET (human) = MET (human) (Homo sapiens, UniProt P08581); experiment: MET (human)-Km of ATP AlphaScreen kinase assay; details: biochemical, ATP at Km
Description: MET (human)-Km of ATP: MET assay is performed in a 384 well assay containing 200 ng/μL biotinylated poly(Glu, Tyr), 0.334 mM vanadate, desired concentration of ATP optimized for the enzyme in assay buffer (50 mM HEPES (pH=7.4), 5 mM MgCl2, 5 mM MnCl2, and 1% glycerol). Desired compound is added in a final concentration of 1% DMSO with control being vehicle of DMSO alone. MET is diluted to the optimized concentration (optimized on a lot-by-lot basis) in an enzyme diluent buffer (50 mM Tris pH=7.4, 1% glycerol, 0.03% Brij35, 0.24 mM EGTA, 1 mM DTT, and 0.003% BSA). Enzyme is added to initiate the reaction and incubated for 60 min at RT. In subdued light, appropriate amount of PT66 donor and acceptor beads (diluted 1:260 from manufacturer's provision in a 25 mM Tris HCl (pH=7.5), 400 mM NaCl, 100 mM EDTA, 0.3% BSA buffer) are added to the wells. The plates, incubated for 1 h, are read on an AlphaQuest plate reader

Sequence of RON (human) (Q04912 25-1400): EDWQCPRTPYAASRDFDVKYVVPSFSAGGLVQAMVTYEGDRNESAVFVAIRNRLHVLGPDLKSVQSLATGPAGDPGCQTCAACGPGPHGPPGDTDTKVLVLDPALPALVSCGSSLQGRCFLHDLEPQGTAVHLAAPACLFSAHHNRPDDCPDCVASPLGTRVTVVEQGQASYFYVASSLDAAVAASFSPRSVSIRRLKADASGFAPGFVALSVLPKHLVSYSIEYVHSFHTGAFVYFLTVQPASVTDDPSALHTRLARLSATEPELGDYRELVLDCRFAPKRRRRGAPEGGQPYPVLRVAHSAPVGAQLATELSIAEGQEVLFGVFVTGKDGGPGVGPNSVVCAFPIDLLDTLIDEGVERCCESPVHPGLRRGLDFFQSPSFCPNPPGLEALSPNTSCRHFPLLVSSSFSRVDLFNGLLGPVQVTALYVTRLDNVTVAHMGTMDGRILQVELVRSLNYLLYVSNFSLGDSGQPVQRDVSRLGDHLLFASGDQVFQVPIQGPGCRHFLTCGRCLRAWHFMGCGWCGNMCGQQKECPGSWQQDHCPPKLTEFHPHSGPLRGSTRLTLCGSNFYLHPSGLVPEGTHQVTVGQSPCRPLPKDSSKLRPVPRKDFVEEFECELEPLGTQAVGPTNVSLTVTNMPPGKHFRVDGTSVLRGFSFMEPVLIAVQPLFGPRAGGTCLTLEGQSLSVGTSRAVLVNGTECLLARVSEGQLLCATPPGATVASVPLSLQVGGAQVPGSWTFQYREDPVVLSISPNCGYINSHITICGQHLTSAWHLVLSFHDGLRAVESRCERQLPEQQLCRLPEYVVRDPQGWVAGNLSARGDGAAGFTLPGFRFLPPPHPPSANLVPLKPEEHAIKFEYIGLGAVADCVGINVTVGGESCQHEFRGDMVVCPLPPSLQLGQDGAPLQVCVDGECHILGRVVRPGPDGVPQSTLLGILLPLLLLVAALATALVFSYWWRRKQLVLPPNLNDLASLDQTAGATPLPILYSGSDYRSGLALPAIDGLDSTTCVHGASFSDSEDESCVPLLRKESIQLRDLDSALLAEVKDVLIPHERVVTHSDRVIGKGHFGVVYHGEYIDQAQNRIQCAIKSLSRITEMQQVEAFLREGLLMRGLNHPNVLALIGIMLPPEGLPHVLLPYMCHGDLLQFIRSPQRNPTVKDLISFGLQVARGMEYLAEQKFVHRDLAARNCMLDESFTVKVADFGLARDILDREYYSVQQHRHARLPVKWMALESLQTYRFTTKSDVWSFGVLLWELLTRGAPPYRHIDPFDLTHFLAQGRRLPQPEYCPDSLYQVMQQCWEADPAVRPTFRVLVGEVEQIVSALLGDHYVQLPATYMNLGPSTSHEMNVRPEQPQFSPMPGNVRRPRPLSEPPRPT
Sequence of MET (human) (P08581 25-1390): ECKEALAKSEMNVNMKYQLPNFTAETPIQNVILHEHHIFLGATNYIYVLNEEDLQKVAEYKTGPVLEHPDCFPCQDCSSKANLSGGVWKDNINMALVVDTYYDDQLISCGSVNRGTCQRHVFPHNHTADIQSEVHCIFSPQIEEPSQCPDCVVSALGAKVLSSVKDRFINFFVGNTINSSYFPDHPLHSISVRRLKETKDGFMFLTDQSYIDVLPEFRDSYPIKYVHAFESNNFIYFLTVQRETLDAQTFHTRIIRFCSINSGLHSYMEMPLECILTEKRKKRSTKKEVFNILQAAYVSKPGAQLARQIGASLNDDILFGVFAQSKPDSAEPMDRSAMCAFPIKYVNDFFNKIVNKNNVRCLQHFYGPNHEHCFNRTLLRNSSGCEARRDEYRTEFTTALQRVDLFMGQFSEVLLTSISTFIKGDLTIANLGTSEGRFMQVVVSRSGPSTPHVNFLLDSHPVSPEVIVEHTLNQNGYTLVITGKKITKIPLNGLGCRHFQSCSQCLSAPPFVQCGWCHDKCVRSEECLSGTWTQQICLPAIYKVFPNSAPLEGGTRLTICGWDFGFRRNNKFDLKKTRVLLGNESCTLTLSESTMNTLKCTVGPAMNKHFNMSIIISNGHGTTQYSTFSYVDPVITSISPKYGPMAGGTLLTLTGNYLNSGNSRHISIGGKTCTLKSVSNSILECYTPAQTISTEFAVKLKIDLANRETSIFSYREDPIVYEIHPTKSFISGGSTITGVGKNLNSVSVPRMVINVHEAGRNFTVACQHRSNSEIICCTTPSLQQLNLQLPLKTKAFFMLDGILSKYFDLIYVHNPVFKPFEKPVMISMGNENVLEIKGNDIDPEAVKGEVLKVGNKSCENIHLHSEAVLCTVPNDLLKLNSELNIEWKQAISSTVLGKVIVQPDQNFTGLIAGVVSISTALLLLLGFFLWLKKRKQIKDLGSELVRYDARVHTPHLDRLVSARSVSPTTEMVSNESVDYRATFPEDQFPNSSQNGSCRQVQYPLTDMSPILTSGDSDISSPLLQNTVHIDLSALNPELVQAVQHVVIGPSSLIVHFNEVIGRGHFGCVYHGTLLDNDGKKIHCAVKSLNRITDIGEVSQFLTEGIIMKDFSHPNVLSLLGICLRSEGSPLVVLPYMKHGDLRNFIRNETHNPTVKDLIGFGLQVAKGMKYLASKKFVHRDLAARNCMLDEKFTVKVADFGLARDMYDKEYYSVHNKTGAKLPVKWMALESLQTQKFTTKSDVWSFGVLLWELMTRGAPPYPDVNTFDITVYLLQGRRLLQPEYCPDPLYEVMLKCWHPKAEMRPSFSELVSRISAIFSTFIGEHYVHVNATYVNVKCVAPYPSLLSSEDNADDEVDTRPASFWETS

IC50 (RON (human)) | IC50 (MET (human)) | SMILES
> 20 µM | – | Nc1ncc2c(ccn2Cc2ccccc2)c1-c1cc2ccccc2o1 [Example 8, [(4-Benzofuran-2-yl)-1-benzyl-1H-pyrrolo[2,3-c]pyridin-5-yl]amine]
> 20 µM | 5 to 20 µM | C[C@@H](Oc1c(N)ncc2c1ccn2C)c1c(Cl)ccc(F)c1Cl [Example 2, 4-[(R)-1-(2,6-Dichloro-3-fluorophenyl)ethoxy]-1-methyl-1H-pyrrolo[2,3-c]pyridin-5-ylamine]
5 to 20 µM | 5 to 20 µM | C[C@@H](Oc1c(N)ncc2[nH]ccc12)c1c(Cl)ccc(F)c1Cl [Example 1, 4-[(R)-1-(2,6-Dichloro-3-fluorophenyl)ethoxy]-1H-pyrrolo[2,3-c]pyridin-5-ylamine]
≤ 5 µM | ≤ 5 µM | Nc1ncc2c(ccn2CCC2CCNCC2)c1-c1cc2ccccc2o1 [Example 10, [(4-Benzofuran-2-yl)-1-(2-piperidin-4-ylethyl)-1H-pyrrolo[2,3-c]pyridin-5-yl]amine bis-hydrochloride]
≤ 5 µM | ≤ 5 µM | C[C@@H](Oc1c(N)ncc2c1ccn2CCC1CCNCC1)c1c(Cl)ccc(F)c1Cl [Example 5, 4-[(R)-1-(2,6-Dichloro-3-fluorophenyl)ethoxy]-1-(2-piperidin-4-ylethyl)1H-pyrrolo[2,3-c]pyridin-5-ylamine bis-hydrochloride]
> 20 µM | > 20 µM | Nc1ncc2[nH]ccc2c1-c1cc2ccccc2o1 [Example 7, 4-Benzofuran-2-yl-1H-pyrrolo[2,3-c]pyridin-5-ylamine]
> 20 µM | 5 to 20 µM | C[C@@H](Oc1c(N)ncc2c1ccn2S(=O)(=O)c1ccccc1)c1c(Cl)ccc(F)c1Cl [Example 6, 1-Benzenesulfonyl-4-[(R)-1-(2,6-dichloro-3-fluorophenyl)ethoxy]-1H-pyrrolo[2,3-c]pyridin-5-ylamine]
